Key:
Aerobacter aerogenes = assay: agar plate paper-disc inhibition zone screening; assay type: cell-based; settings: Klebsiella aerogenes; Dose 1.0 mg/ml; read-out: Inhibition Zone Diameter mm (Dose mg/ml) A. Aerogenes
How it was run: (§1)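 Inoculum: saline suspension, 20-35% transmittancy, in molten agar. Discs 12.7 mm, compound 3,000/1,000/500/100/10 mcg/ml, solvent <10%. 37°C, 18-20 h; zone diameter in mm.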

Bacillus subtilis = assay: agar plate paper-disc inhibition zone screening; assay type: cell-based; settings: Dose 1.0 mg/ml, read-out: Inhibition Zone Diameter mm (Dose mg/ml) B. Subtilis
How it was run: as §1

Escherichia coli = assay: agar plate paper-disc inhibition zone screening; assay type: cell-based; settings: Dose 0.5 mg/ml, read-out: Inhibition Zone Diameter mm (Dose mg/ml) E. Coli
How it was run: as §1

Streptococcus faecalis = assay: agar plate paper-disc inhibition zone screening; assay type: cell-based; settings: Enterococcus faecalis; Dose 1.0 mg/ml; read-out: Inhibition Zone Diameter mm (Dose mg/ml) S. Faecalis
How it was run: as §1

Penicillium avellaneum = assay: agar plate paper-disc inhibition zone screening; assay type: cell-based; settings: Hamigera avellanea; Dose 3.0 mg/ml; read-out: Inhibition Zone Diameter mm (Dose mg/ml) P. Avellaneum
How it was run: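 Mycelia and spores from a six-day 28°C agar culture, suspended in saline with 0.05% Tween 80 at 20% transmittancy, were seeded into molten agar trays. Compounds at 3,000, 1,000, 500, 100 and 10 mcg/ml (solvent <10%) were applied on 12.7 mm paper discs. After at least 20-24 h incubation, inhibition zone diameter was measured in mm.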

[1] = test system: lymphocytic leukemia P388; assay: in vivo lymphocytic leukemia P388 test; parameters: species or system mice; settings: Mus musculus, P388, ip, 720 h, two single doses four days apart, read-out: T/C × 100 (Percent)
How it was run: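 Efficacy was judged from the treated/control survival-time ratio over 30 days (T/C×100 >125% as criterion). Mice (CD2F, 6–7/group) received i.p. P388 ascites cells, then compound i.p. at varied doses twice, four days apart.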

ADJ—PC6 Plasmacytoma = assay: broad spectrum antitumor activity in mice, ADJ-PC6 plasmacytoma; assay type: in vivo; settings: IP/IP
From the text: (§2) Broad Spectrum Antitumor Activity^* of 2-[2-(Diethylamino)ethyl]-7,10-dihydroxy-5-[[2-[(2-hydroxyethyl)amino]ethyl]amino]anthra[1-9-cd]pyrazol-6(2H)-one Dihydrochloride in Mice

B16 Melanoma (BDF1) = assay: broad spectrum antitumor activity in mice, B16 melanoma (BDF1); assay type: in vivo; settings: IP/IP
From the text: as §2

B16 Melanoma (B6C3F1) = assay: broad spectrum antitumor activity in mice, B16 melanoma (B6C3F1); assay type: in vivo; settings: I-/IP
From the text: as §2

Colon 38 (BDF1) = assay: broad spectrum antitumor activity in mice, Colon 38; assay type: in vivo; settings: SC/IP, Q01D × 09, Dose 16 mg/kg
From the text: as §2

L1210 Leukemia (CDF1) = assay: broad spectrum antitumor activity in mice, L1210 leukemia; assay type: in vivo; settings: IP/IP
From the text: as §2

M5076 Ovary = assay: broad spectrum antitumor activity in mice, M5076 ovary; assay type: in vivo; settings: IP/IP
From the text: as §2

CCN(CC)CCn1nc2c3c(c(NCCNCCO)ccc31)C(=O)c1c(O)ccc(O)c1-2 [Example 28, 2-[2-(Diethylamino)ethyl]-7,10-dihydroxy-5-[[2-[(2-hydroxyethyl)amino]ethyl]amino]anthra[1,9-cd]pyrazol-6(2H)-one]
zone of inhibition at 1000 µg/mL (Aerobacter aerogenes): 14 mm
zone of inhibition at 1000 µg/mL (Bacillus subtilis): 15 mm
zone of inhibition at 500 µg/mL (Escherichia coli): 14 mm
zone of inhibition at 1000 µg/mL (Streptococcus faecalis): 14 mm
zone of inhibition at 3000 µg/mL (Penicillium avellaneum): 0 mm
response vs control in vivo at 0.78 mg/kg ([1]; P388, Dose 0.78 mg/kg intraperitoneally): 140%
response vs control in vivo at 1.56 mg/kg ([1]; P388, Dose 1.56 mg/kg intraperitoneally): 148%
response vs control in vivo at 3.12 mg/kg ([1]; P388, Dose 3.12 mg/kg intraperitoneally): 164%
response vs control in vivo at 6.25 mg/kg ([1]; P388, Dose 6.25 mg/kg intraperitoneally): 180%
T/C × 100 (Percent) (ADJ—PC6 Plasmacytoma; Q04D × 03, Dose 2 mg/kg): 207%
T/C × 100 (Percent) (ADJ—PC6 Plasmacytoma; Q04D × 03, Dose 4 mg/kg): 216%
T/C × 100 (Percent) (ADJ—PC6 Plasmacytoma; Q04D × 03, Dose 8 mg/kg): 235%
T/C × 100 (Percent) (ADJ—PC6 Plasmacytoma; Q04D × 03, Dose 16 mg/kg): 163%
T/C × 100 (Percent) (B16 Melanoma (BDF1); Q01D × 09, Dose 4 mg/kg): 151%
T/C × 100 (Percent) (B16 Melanoma (BDF1); Q01D × 09, Dose 8 mg/kg): 176%
T/C × 100 (Percent) (B16 Melanoma (B6C3F1); Q01D × 09, Dose 3 mg/kg): 148%
T/C × 100 (Percent) (B16 Melanoma (B6C3F1); Q01D × 09, Dose 6 mg/kg): 189%
% Tumor Reduction (Colon 38 (BDF1)): 71%
T/C × 100 (Percent) (L1210 Leukemia (CDF1); Q01D × 09, Dose 1 mg/kg): 137%
T/C × 100 (Percent) (L1210 Leukemia (CDF1); Q01D × 09, Dose 2 mg/kg): 144%
T/C × 100 (Percent) (L1210 Leukemia (CDF1); Q01D × 09, Dose 4 mg/kg): 178%
T/C × 100 (Percent) (L1210 Leukemia (CDF1); Q01D × 09, Dose 8 mg/kg): 240%
T/C × 100 (Percent) (L1210 Leukemia (CDF1); Q01D × 09, Dose 16 mg/kg): 133%
T/C × 100 (Percent) (M5076 Ovary; Q04D × 04, Dose 1.25 mg/kg): 143%
T/C × 100 (Percent) (M5076 Ovary; Q04D × 04, Dose 2.5 mg/kg): 233%
T/C × 100 (Percent) (M5076 Ovary; Q04D × 04, Dose 5 mg/kg): 186%
T/C × 100 (Percent) (M5076 Ovary; Q04D × 04, Dose 10 mg/kg): 260%
